PubChem BioAssay AID2423 (Broad Institute, 2010)
Records with an inconclusive call do not appear. The source made the active and inactive calls. The rule behind the calls is not given here.

Tested on: C. albicans CaCi-8 + fluconazole, Alamar Blue growth, 48 h
Experiment: resistant C. albicans growth inhibition with fluconazole, dose response, CaCi-8 strain, Alamar Blue fluorescence (AID 2423)

| SMILES | EC50 |
| --- | --- |
| COc1ccc(-c2cc(-c3c(O)c(OC)c4occc4c3OC)[nH]n2)cc1 | > 15000 nM (inactive) |
| Cc1cc2c(cc(C(=O)OCC(=O)NCc3ccco3)n2C)s1 | 6460 nM |
| Oc1ccc(Br)cc1/C=N/Nc1ccccn1 | 2590 nM |
| O=C(CCCCCN1C(=O)c2cccc3cccc(c23)C1=O)N1CCOCC1 | > 15000 nM (inactive) |
| OCc1ccc(O)c2ncccc12 | 12400 nM |
| CCN1/C(=C/c2ccc3cc(C)ccc3[n+]2CC)Sc2ccc3sccc3c21 | < 120 nM |
| O=C(Nc1nnc(-c2ccco2)o1)c1cccc(Cl)c1 | 859 nM |
| O=C1c2ccccc2NC(c2ccc(-c3ccc(Br)cc3)o2)N1O (stereo not drawn) | 2120 nM |
| CCCn1c(N)c(C(=O)COC(=O)c2c(C)noc2C)c(=O)n(C)c1=O | > 15000 nM (inactive) |
| COc1ccc(-c2cc(N)n(S(=O)(=O)c3c(F)c(F)c(F)c(F)c3F)n2)cc1OC | > 16000 nM (inactive) |
| COc1ccc(O)c(/C=N/NC(=O)c2ccc(CSc3nc(C)cc(C)n3)cc2)c1 | 1760 nM |
| CCOC(=O)c1c(NC(=O)C2Cc3ccccc3C(=O)O2)sc2c1CCCC2 (stereo not drawn) | > 16000 nM (inactive) |
| Cc1nn(-c2ccccc2)c(Cl)c1/C=C/C(=O)c1ccc(O)cc1 | 1640 nM |
| Oc1c(Cl)cc(Cl)c(Cl)c1Cc1c(O)c(Cl)cc(Cl)c1Cl | 1720 nM |
| CCCCn1c(=O)[nH]c(=O)c2c1nc(-c1ccc(-c3ccccc3Br)o1)n2CC | > 15000 nM (inactive) |
| CCNc1nc(NC(C)C)nc(NC(C)(C)C)n1 | 1400 nM |
| Cc1ccc(/C=N/NC(=O)c2c(-c3ccccc3)noc2C)c(O)c1 | 6160 nM |
| COc1ccc(C(=O)NC(=S)NNC(=O)c2ccc3ccccc3n2)cc1 | 583 nM |
| O=C(N/N=C/c1c(O)n(CCC2=CCCCC2)c(=S)[nH]c1=O)c1ccccc1 | 10700 nM |
| CC(C)=CCc1cc2c(=O)c3c(O)c4c(cc3oc2c(O)c1O)OC(C)C4(C)C (stereo not drawn) | 6360 nM |
| COc1ccc(OC)c(/C=C2\SC(=S)N(NS(=O)(=O)c3ccc(C)cc3)C2=O)c1 | 1130 nM |
| O=C(Nc1cccc(F)c1)c1ccc2ncsc2c1 | 2350 nM |

| SMILES | EC50 |
| --- | --- |
| Cc1cccc(N2CCc3c2nc2ccc(Br)cc2c3N)c1 | 1610 nM |
| COc1cc(C2C(C#N)=C(N)N(c3ccc(F)cc3)C3=C2S(=O)(=O)CC3)ccc1O (stereo not drawn) | > 16000 nM (inactive) |
| Oc1c(C(c2ccccc2Cl)N2CCCC2)ccc2cccnc12 (stereo not drawn) | 1250 nM |
| Cc1ccccc1Nc1ncccc1C(=O)N1CCOCC1 | > 16000 nM (inactive) |
| O=C(CSCc1cccc(CSCC(=O)Nc2ccccc2)n1)Nc1ccccc1 | > 15000 nM (inactive) |
| Cc1cccc(NC(=S)NNC(=O)c2csc(C(C)C)c2)c1 | 4240 nM |
| Cn1c(O)c(/C=N/NC(=O)c2cc3ccccc3cc2O)c2ccccc21 | 5350 nM |
| CC(C)(C)c1ccc(OCc2ccc(C(=O)N/N=C/c3ccc(O)c(O)c3)cc2)cc1 | 3080 nM |
| C=CCNC(=S)N/N=C(\C)c1ccccn1 | 2300 nM |
| O=C(Oc1c(CN2CCOCC2)cc(Cl)c2cccnc12)c1ccc(F)cc1 | 3110 nM |
| O=[N+]([O-])c1cc(Cl)c2cccnc2c1O | 291 nM |
| CCCCOc1ccc(-c2cc(C(=O)NNC(=S)NCC)c3ccccc3n2)cc1 | 1060 nM |
| CCOC(=O)Cc1csc(NC(=O)CSc2nc3sc(C(=O)O)c(C)c3c(=O)[nH]2)n1 | > 16000 nM (inactive) |
| Cc1cc(/C=N/NC(N)=S)c(C)n1-c1cccc(Cl)c1 | 1650 nM |
| O=[N+]([O-])c1ccc(O)c(/C=N/NC(=S)Nc2ccc(Cl)cc2Cl)c1 | 1870 nM |
| O=C(N/N=C/c1cc2c3c(c1O)CCCN3CCC2)c1ccccc1O | 895 nM |
| O=C(N/N=C/c1sc(N2CCOCC2)nc1-c1ccccc1)c1cccc(S(=O)(=O)N2CCCC2)c1 | 2160 nM |
| CCc1ccc2c(c1)/C(=C/C(=O)c1cccs1)C(=O)N2 | 2380 nM |
| CCC(=O)NC(c1ccc(Cl)cc1Cl)c1ccc2cccnc2c1O (stereo not drawn) | 714 nM |
| O=C(N/N=C/c1ccc[nH]1)c1cc2ccccc2cc1O | 3940 nM |
| Cc1cc(NC(=O)COC(=O)[C@@H](NS(=O)(=O)c2ccc(Br)cc2)C(C)C)no1 | > 15000 nM (inactive) |
